From patent publication US20220279826A1, “OFF-FLAVOR SUPPRESSING AGENT” (AJINOMOTO CO., INC., priority 2019, published 2022)

Legend:
[1] = Sensory evaluation in 0.12 wt % aspartame aqueous solution (Experimental Example 12); settings: Table 26
Description: Each compound shown in the following Table 26 was added to a 0.12 wt % aspartame aqueous solution (an aqueous solution prepared by dissolving aspartame (0.12 parts by weight) in ion exchange water (99.88 parts by weight)) so as to achieve the concentration (addition concentration) shown in the following Table 26 to prepare each evaluation sample.
Based on the following evaluation criteria, a panel of three experts determined by consensus the intensity of off-tastes (bitter taste, harsh taste, metallic taste) derived from aspartame in each evaluation sample, by comparison with a 0.12 wt % aspartame aqueous solution without addition of any compound (negative control).

[2] = Sensory evaluation in soy protein hamburg steak (Experimental Example 17); settings: Table 32
Description: Of the materials shown in the following Table 31, the materials of category 1 were first mixed, and the materials of category 2 were further mixed. The obtained mixture was formed into a circular shape of about 100 g per piece, and then baked at 180° C. for 2 minutes and 30 seconds for each of the front and back sides on an iron plate to produce a soy protein hamburg steak. Here, the granular soy protein manufactured by FUJI OIL CO., LTD. was used.
Each compound shown in the following Table 32 was added to soy protein hamburg steak so as to achieve the concentration (addition concentration) shown in the following Table 32 to prepare each evaluation sample.
Based on the following evaluation criteria, a panel of five experts determined by consensus the intensity of off-tastes (bitter taste, harsh taste, astringent taste) derived from soy protein in each evaluation sample, by comparison with soy protein hamburg steak without addition of any compound (negative control).

[3] = Sensory evaluation in 0.15 wt % catechin aqueous solution (Experimental Example 9); settings: summary of Table 23
Description: Each compound shown in the following Table 23 was added to a 0.15 wt % catechin aqueous solution (an aqueous solution prepared by dissolving catechin (0.15 parts by weight) in ion exchange water (99.85 parts by weight)) so as to achieve the concentration (addition concentration) shown in the following Table 23 to prepare each evaluation sample.
Based on the following evaluation criteria, a panel of four experts determined by consensus the intensity of off-tastes (bitter taste, rough taste, harsh taste) derived from catechin in each evaluation sample, by comparison with a 0.15 wt % catechin aqueous solution without addition of any compound (negative control).

[4] = Sensory evaluation in 0.06 wt % acesulfame potassium aqueous solution (Experimental Example 10); settings: summary of Table 24
Description: Each compound shown in the following Table 24 was added to a 0.06 wt % acesulfame potassium aqueous solution (an aqueous solution prepared by dissolving acesulfame potassium (0.06 parts by weight) in water (99.94 parts by weight)) so as to achieve the concentration (addition concentration) shown in the following Table 24 to prepare each evaluation sample.
Based on the following evaluation criteria, a panel of four experts determined by consensus the intensity of off-tastes (bitter taste) derived from acesulfame potassium in each evaluation sample, by comparison with a 0.06 wt % acesulfame potassium aqueous solution without addition of any compound (negative control).

[5] = Sensory evaluation in granular pea protein (Experimental Example 15); settings: Table 29
Description: Each compound shown in the following Table 29 was added to granular pea protein (manufactured by Roquette) so as to achieve the concentration (addition concentration) shown in the following Table 29 to prepare each evaluation sample.
Based on the following evaluation criteria, a panel of four experts determined by consensus the intensity of off-tastes (bitter taste, harsh taste, astringent taste) derived from pea protein in each evaluation sample, by comparison with granular pea protein without addition of any compound (negative control).

[6] = Sensory evaluation in stevia aqueous solution (Experimental Example 7); settings: text summary of Table 21
Description: Each compound shown in the following Table 21 was added […] to an aqueous solution prepared by dissolving stevia (manufactured by PureCircle) ([…]) in ion exchange water (99.93 parts by weight) (hereinafter at times referred to as stevia aqueous solution) so as to achieve the concentration (addition concentration) shown in the following Table 21 to prepare each evaluation sample.
Based on the following evaluation criteria, a panel of four experts determined by consensus the intensity of off-tastes (bitter taste, harsh taste, metallic taste) derived from stevia in each evaluation sample, by comparison with a stevia aqueous solution without addition of any compound (negative control).

[7] = Sensory evaluation in granular soy protein (Experimental Example 14); settings: text summary of Table 28
Description: Each compound shown in the following Table 28 was added to granular soy protein (manufactured by FUJI OIL CO., LTD.) so as to achieve the concentration (addition concentration) shown in the following Table 28 to prepare each evaluation sample.
Based on the following evaluation criteria, a panel of four experts determined by consensus the intensity of off-tastes (bitter taste, harsh taste, astringent taste) derived from soy protein in each evaluation sample, by comparison with granular soy protein without addition of any compound (negative control).

[8] = Sensory evaluation in granular fava bean protein (Experimental Example 16); settings: Table 30
Description: Each compound shown in the following Table 30 was added to granular fava bean protein (manufactured by Schouten) so as to achieve the concentration (addition concentration) shown in the following Table 30 to prepare each evaluation sample.
Based on the following evaluation criteria, a panel of four experts determined by consensus the intensity of off-tastes (bitter taste, harsh taste, astringent taste) derived from fava bean protein in each evaluation sample, by comparison with granular fava bean protein without addition of any compound (negative control).

[9] = Sensory evaluation in pea protein aqueous solution (Experimental Example 8); settings: text summary of Table 22
Description: Each compound shown in the following Table 22 was added to an aqueous solution prepared by dissolving powdered pea protein (6 parts by weight) and granulated sugar (4 parts by weight) in ion exchange water (90 parts by weight) (hereinafter at times referred to as pea protein aqueous solution) so as to achieve the concentration (addition concentration) shown in the following Table 22 to prepare each evaluation sample. Here, the powdered pea protein manufactured by Cosucra was used.
Based on the following evaluation criteria, a panel of four experts determined by consensus the intensity of off-tastes (bitter taste, harsh taste, astringent taste) derived from pea protein in each evaluation sample, by comparison with a pea protein aqueous solution without addition of any compound (negative control).

[10] = Sensory evaluation in 1.5 wt % disodium phosphate aqueous solution (Experimental Example 19); settings: Table 34
Description: Each compound shown in the following Table 34 was added to a 1.5 wt % disodium phosphate aqueous solution (aqueous solution prepared by dissolving disodium phosphate (1.5 parts by weight) in water (98.5 parts by weight)) so as to achieve the concentration (addition concentration) shown in the following Table 34 to prepare each evaluation sample.
Based on the following evaluation criteria, a panel of four experts determined by consensus the intensity of off-tastes (bitter taste, harsh taste, astringent taste) derived from disodium phosphate in each evaluation sample, by comparison with a 1.5 wt % disodium phosphate aqueous solution without addition of any compound (negative control).

CC(=O)c1ccc(C)o1 [2-acetyl-5-methylfuran]
suppressed: intensity of off-tastes (bitter taste, harsh taste, metallic taste) derived from aspartame [1] | intensity of off-tastes (bitter taste, harsh taste, astringent taste) derived from soy protein [2] | intensity of off-tastes (bitter taste, rough taste, harsh taste) derived from catechin [3] | intensity of off-tastes (bitter taste) derived from acesulfame potassium [4] | intensity of off-tastes (bitter taste, harsh taste, astringent taste) derived from pea protein [5] | intensity of off-tastes (bitter taste, harsh taste, metallic taste) derived from stevia [6] | intensity of off-tastes (bitter taste, harsh taste, astringent taste) derived from soy protein [7] | intensity of off-tastes (bitter taste, harsh taste, astringent taste) derived from fava bean protein [8] | intensity of off-tastes (bitter taste, harsh taste, astringent taste) derived from pea protein [9] | intensity of off-tastes (bitter taste, harsh taste, astringent taste) derived from disodium phosphate [10]

CC(=O)c1ccco1 [2-acetylfuran]
suppressed: intensity of off-tastes (bitter taste, harsh taste, metallic taste) derived from aspartame [1] | intensity of off-tastes (bitter taste, harsh taste, astringent taste) derived from soy protein [2] | intensity of off-tastes (bitter taste, rough taste, harsh taste) derived from catechin [3] | intensity of off-tastes (bitter taste) derived from acesulfame potassium [4] | intensity of off-tastes (bitter taste, harsh taste, astringent taste) derived from pea protein [5] | intensity of off-tastes (bitter taste, harsh taste, metallic taste) derived from stevia [6] | intensity of off-tastes (bitter taste, harsh taste, astringent taste) derived from soy protein [7] | intensity of off-tastes (bitter taste, harsh taste, astringent taste) derived from fava bean protein [8] | intensity of off-tastes (bitter taste, harsh taste, astringent taste) derived from pea protein [9] | intensity of off-tastes (bitter taste, harsh taste, astringent taste) derived from disodium phosphate [10]

CC1OCCC1=O (stereo not drawn) [2-methyltetrahydrofuran-3-one]
suppressed: intensity of off-tastes (bitter taste, harsh taste, metallic taste) derived from aspartame [1] | intensity of off-tastes (bitter taste, harsh taste, astringent taste) derived from soy protein [2] | intensity of off-tastes (bitter taste, rough taste, harsh taste) derived from catechin [3] | intensity of off-tastes (bitter taste) derived from acesulfame potassium [4] | intensity of off-tastes (bitter taste, harsh taste, astringent taste) derived from pea protein [5] | intensity of off-tastes (bitter taste, harsh taste, metallic taste) derived from stevia [6] | intensity of off-tastes (bitter taste, harsh taste, astringent taste) derived from soy protein [7] | intensity of off-tastes (bitter taste, harsh taste, astringent taste) derived from fava bean protein [8] | intensity of off-tastes (bitter taste, harsh taste, astringent taste) derived from pea protein [9] | intensity of off-tastes (bitter taste, harsh taste, astringent taste) derived from disodium phosphate [10]

CC1=C(O)C(=O)CC1 [cyclotene]
suppressed: intensity of off-tastes (bitter taste, harsh taste, metallic taste) derived from aspartame [1] | intensity of off-tastes (bitter taste, harsh taste, astringent taste) derived from soy protein [2] | intensity of off-tastes (bitter taste, rough taste, harsh taste) derived from catechin [3] | intensity of off-tastes (bitter taste) derived from acesulfame potassium [4] | intensity of off-tastes (bitter taste, harsh taste, astringent taste) derived from pea protein [5] | intensity of off-tastes (bitter taste, harsh taste, metallic taste) derived from stevia [6] | intensity of off-tastes (bitter taste, harsh taste, astringent taste) derived from soy protein [7] | intensity of off-tastes (bitter taste, harsh taste, astringent taste) derived from fava bean protein [8] | intensity of off-tastes (bitter taste, harsh taste, astringent taste) derived from pea protein [9] | intensity of off-tastes (bitter taste, harsh taste, astringent taste) derived from disodium phosphate [10]

O=Cc1ccco1 [furfural, Furfural]
suppressed: intensity of off-tastes (bitter taste, harsh taste, metallic taste) derived from aspartame [1] | intensity of off-tastes (bitter taste, harsh taste, astringent taste) derived from soy protein [2] | intensity of off-tastes (bitter taste, rough taste, harsh taste) derived from catechin [3] | intensity of off-tastes (bitter taste) derived from acesulfame potassium [4] | intensity of off-tastes (bitter taste, harsh taste, astringent taste) derived from pea protein [5] | intensity of off-tastes (bitter taste, harsh taste, metallic taste) derived from stevia [6] | intensity of off-tastes (bitter taste, harsh taste, astringent taste) derived from soy protein [7] | intensity of off-tastes (bitter taste, harsh taste, astringent taste) derived from fava bean protein [8] | intensity of off-tastes (bitter taste, harsh taste, astringent taste) derived from pea protein [9] | intensity of off-tastes (bitter taste, harsh taste, astringent taste) derived from disodium phosphate [10]

CCC(=O)O [propionic acid]
suppressed: intensity of off-tastes (bitter taste, harsh taste, metallic taste) derived from aspartame [1] | intensity of off-tastes (bitter taste, harsh taste, astringent taste) derived from soy protein [2] | intensity of off-tastes (bitter taste, rough taste, harsh taste) derived from catechin [3] | intensity of off-tastes (bitter taste) derived from acesulfame potassium [4] | intensity of off-tastes (bitter taste, harsh taste, astringent taste) derived from pea protein [5] | intensity of off-tastes (bitter taste, harsh taste, metallic taste) derived from stevia [6] | intensity of off-tastes (bitter taste, harsh taste, astringent taste) derived from soy protein [7] | intensity of off-tastes (bitter taste, harsh taste, astringent taste) derived from fava bean protein [8] | intensity of off-tastes (bitter taste, harsh taste, astringent taste) derived from pea protein [9] | intensity of off-tastes (bitter taste, harsh taste, astringent taste) derived from disodium phosphate [10]
